Among the data in ChEMBL document CHEMBL3046132, “Design and synthesis of thienopyridines as novel templates for acetylcholinesterase inhibitors” (2013) are inhibition in vivo values, retold here.

Structures are written as SMILES.

This experiment concerns Rattus norvegicus. The experiment in a line: In vivo inhibition of AchE in Wistar albino Rattus norvegicus (rat) brain at 10 mg/kg, po after 30 min relative to untreated control. It is filed as functional. The settings on record: 0.5 h.

Molecule `Cc1sc2nc3c(c(NCCCCNC(=O)CCCCC4CCSS4)c2c1C)CCCC3` (stereo not drawn) registered an inhibition in vivo at 10 mg/kg of 42.9%. To `O=C1c2ccccc2C(=O)N1CCCCNc1c2c(nc3sc4c(c13)CCCC4)CCCC2` belongs 29.8%.

`Cc1sc2nc3c(c(NCCCCNc4c5c(nc6sc(C)c(C)c46)CCCC5)c2c1C)CCCC3` yielded an inhibition in vivo at 10 mg/kg of 41.5%. Turning to `O=C(CCCCC1CCSS1)NCCCNc1c2c(nc3sc4c(c13)CCCC4)CCCC2` (stereo not drawn), the inhibition in vivo at 10 mg/kg worked out at 56.7%. For the molecule `O=C1c2ccccc2C(=O)N1CCCNc1c2c(nc3sc4c(c13)CCCC4)CCCC2`, at 10 mg/kg the inhibition in vivo was 42.7%. As for `C(CCNc1c2c(nc3sc4c(c13)CCCC4)CCCC2)CNc1c2c(nc3sc4c(c13)CCCC4)CCCC2`, testing at 10 mg/kg gave an inhibition in vivo of 35.7%. `Cc1sc2nc3c(c(NCCCNc4c5c(nc6sc(C)c(C)c46)CCCC5)c2c1C)CCCC3` displayed an inhibition in vivo at 10 mg/kg of 25.1%.

`Cc1sc2nc3c(c(NCCCCN4C(=O)c5ccccc5C4=O)c2c1C)CCCC3` gave an inhibition in vivo at 10 mg/kg of 55.6%.

`Nc1c2c(nc3ccccc13)CCCC2` [TACRINE] yielded an inhibition in vivo at 10 mg/kg of 54.9%. To `O=C(CCCCC1CCSS1)NCCCCNc1c2c(nc3sc4c(c13)CCCC4)CCCC2` (stereo not drawn) belongs 21.4%.

`Cc1sc2nc3c(c(NCCCN4C(=O)c5ccccc5C4=O)c2c1C)CCCC3` had an inhibition in vivo at 10 mg/kg of 46.2%.

Regarding `O=C1c2ccccc2C(=O)N1CCNCCCCNc1c2c(nc3sc4c(c13)CCCC4)CCCC2`, the inhibition in vivo at 10 mg/kg was 45%. To `O=C1c2ccccc2C(=O)N1CCNCCCNc1c2c(nc3sc4c(c13)CCCC4)CCCC2` belongs 43.9%.
